In US20230255953A1, “USE OF ROLUPERIDONE IN PREVENTING RELAPSE IN SCHIZOPHRENIA PATIENTS” (Minerva Neurosciences, Inc., priority 2022, published 2023):

Test system: patients with negative symptoms of schizophrenia
Experiment: Integrated analysis of Studies #1 and #2 (pooled ITT): PANSS-derived scores (NSFS, total, positive and negative subscales), DB, OL and whole study
Format: in vivo, human
Design: key to NSFS Score change from Baseline, Median: change from Baseline in PANSS NSFS points; higher score = more severe
Protocol: The primary integrated analysis of the efficacy of Roluperidone compared with placebo for the treatment of negative symptoms of schizophrenia is based on the change from Baseline in the PANSS Marder's negative symptoms factor score (in this document referred to as NSFS) to Week 12. Efficacy is also supported by the analysis of change from Baseline in the PSP Total score and the CGI-S to Week 12.
The PANSS was assessed at the time points described in Table 4.
The PANSS-derived endpoints used in these studies and the integrated analyses are described in Table 5A and a summary of the individual PANSS items used by physicians and clinicians to measure the severity of the symptoms in a schizophrenia patient is provided in Table 5B. The scale is divided into three parts, a positive scale, which provides a “PANSS positive subscore”, a negative scale, which provides a “PANSS negative subscore”, and general psychopathology scale. The sum of these three parts provides a PANSS total score, which ranges from 30 to 210 (where higher scores indicate more severe symptoms). (See Kay, S. R., et al. “The positive and negative syndrome scale (PANSS) for schizophrenia,” Schizophr Bulletin, 13(2), 261-276 (1987) and Gopal, S., et al. “Improvement of Negative Symptoms in Schizophrenia with Paliperidone Palmitate 1-Month and 3-Month Long-Acting Injectables: Results from a Phase 3 Non-Inferiority Study” Neuropsychiatric Disease and Treatment, 681-690, DOI: 10.2147/NDT.5226296, both of which are incorporated by reference.)
The Efficacy data from Study Nos. 1 and 2 were pooled. The majority of patients in the pooled ITT population completed the DB period (502 patients overall, 66.3%), with similar rates in each treatment group (placebo: 69.8%, 32 mg Roluperidone: 65.3%, and 64 mg Roluperidone: 63.8%) (Table 12). The majority (62.7%) of those who completed the DB period entered the OL period. The most common reason for discontinuation during the DB period among patients overall was withdrawal of consent (15.6%), followed by adverse events (7.3%) and lack of efficacy (5.4%) (Table 12). […] Approximately twice as many patients in the Roluperidone groups (32 mg: 8.5%; 64 mg: 9.1%) discontinued due to adverse events compared with patients in the placebo group (4.3%). More patients in the placebo group discontinued due to lack of efficacy (6.7%) than in the Roluperidone groups (32 mg: 4.4%; 64 mg: 5.1%). The low number of patients who discontinued due to lack of efficacy or withdrawal of consent probably reflects a low level of worsening of positive symptoms.
The integrated analysis supporting the efficacy of Roluperidone as a treatment for the negative symptoms of schizophrenia in adults is presented below.

[1] = Placebo in DB to Roluperidone 32 mg in OL, pooled ITT
[2] = Placebo in DB to Roluperidone 64 mg in OL, pooled ITT
[3] = Placebo in DB to Roluperidone in OL, Total, pooled ITT
[4] = Roluperidone Total, Week 2, DB, pooled ITT
[5] = Roluperidone Total, Week 2, pooled ITT

Substance: 1H-Isoindol-1-one,2-[ [1-[2-(4-fluorophenyl)-2-oxoethyl]-4-piperidinyl]methyl]-2,3-dihydro-, hydrochloride, hydrate (1:1:2) [Roluperidone]
- Patients with moderate improvement in NSFS (magnitude of change 6-8) (64 mg, Week 12, pooled): 19%
- Patients with moderate or high improvement in NSFS, total (64 mg, Week 12, pooled): 32%
- NSFS, LS mean decrease from Baseline compared with placebo (64 mg, Week 12, pooled ITT): −3.9
- PANSS Positive Subscale Score change from Baseline, LS mean (SE) (64 mg, Week 12, pooled ITT): −0.2 (0.21)
- PANSS Positive Subscale Score change from Baseline, Mean (SD) (64 mg, Week 12, pooled ITT): −0.5 (2.88)
- PANSS Positive Subscale Score change from Baseline, Median (64 mg, Week 12, pooled ITT): 0.0
- PANSS Positive Subscale Score, Difference (95% CI) in LS mean (vs placebo) (64 mg, Week 12, pooled ITT): −0.4
- PANSS negative subscale score, LS mean change from Baseline compared with placebo (64 mg, Week 12, pooled ITT): −1.3
- PANSS positive subscale score, LS mean change from Baseline compared with placebo (64 mg, Week 12, pooled ITT): −0.4
- PANSS total score, LS mean change from Baseline compared with placebo (64 mg, Week 12, pooled ITT): −2.8
- Patients with 20% Reduction in NSFS at Week 12, percent (64 mg, responder analysis): 39%
- Patients with 20% Reduction in PANSS Total Score at Week 12, percent (64 mg, responder analysis): 19%
- Number of Patients with 20% Reduction in PANSS Total Score at Week 12 (64 mg, responder analysis, n/N): 34/176
- Number of Patients with 20% reduction in NSFS at Week 12 (64 mg, responder analysis, n/N): 68/176
- NSFS Change from Active BL to Week 24, Mean (SD) [1]: −2.1 (2.56)
- NSFS Change from Active BL to Week 24, Median [1]: −2.0
- NSFS Change from Active BL to Week 52, Mean (SD) [1]: −4.5 (3.60)
- NSFS Change from Active BL to Week 52, Median [1]: −4.0
- NSFS Change from Active BL to Week 54, Mean (SD) [1]: −4.7 (3.60)
- NSFS Change from Active BL to Week 54, Median [1]: −4.0
- NSFS Change from Open-label BL to Week 24, Mean (SD) [1]: −2.1 (2.56)
- NSFS Change from Open-label BL to Week 24, Median [1]: −2.0
- NSFS Change from Open-label BL to Week 52, Mean (SD) [1]: −4.5 (3.60)
- NSFS Change from Open-label BL to Week 52, Median [1]: −4.0
- NSFS Change from Open-label BL to Week 54, Mean (SD) [1]: −4.7 (3.60)
- NSFS Change from Open-label BL to Week 54, Median [1]: −4.0
- NSFS Change from Study BL to Week 24, Mean (SD) [1]: −5.3 (3.72)
- NSFS Change from Study BL to Week 24, Median [1]: −5.0
- NSFS Change from Study BL to Week 52, Mean (SD) [1]: −7.9 (3.69)
- NSFS Change from Study BL to Week 52, Median [1]: −8.0
- NSFS Change from Study BL to Week 54, Mean (SD) [1]: −7.9 (4.29)
- NSFS Change from Study BL to Week 54, Median [1]: −7.0
- NSFS Change from Active BL to Week 24, Mean (SD) [2]: −1.8 (3.55)
- NSFS Change from Active BL to Week 24, Median [2]: −2.0
- NSFS Change from Active BL to Week 52, Mean (SD) [2]: −4.9 (4.72)
- NSFS Change from Active BL to Week 52, Median [2]: −6.0
- NSFS Change from Active BL to Week 54, Mean (SD) [2]: −4.2 (4.78)
- NSFS Change from Active BL to Week 54, Median [2]: −5.0
- NSFS Change from Open-label BL to Week 24, Mean (SD) [2]: −1.8 (3.55)
- NSFS Change from Open-label BL to Week 24, Median [2]: −2.0
- NSFS Change from Open-label BL to Week 52, Mean (SD) [2]: −4.9 (4.72)
- NSFS Change from Open-label BL to Week 52, Median [2]: −6.0
- NSFS Change from Open-label BL to Week 54, Mean (SD) [2]: −4.2 (4.78)
- NSFS Change from Open-label BL to Week 54, Median [2]: −5.0
- NSFS Change from Study BL to Week 24, Mean (SD) [2]: −4.2 (3.38)
- NSFS Change from Study BL to Week 24, Median [2]: −4.0
- NSFS Change from Study BL to Week 52, Mean (SD) [2]: −7.0 (3.76)
- NSFS Change from Study BL to Week 52, Median [2]: −7.5
- NSFS Change from Study BL to Week 54, Mean (SD) [2]: −6.6 (4.15)
- NSFS Change from Study BL to Week 54, Median [2]: −7.0
- NSFS Change from Active BL to Week 24, Mean (SD) [3]: −1.9 (3.06)
- NSFS Change from Active BL to Week 24, Median [3]: −2.0
- NSFS Change from Active BL to Week 52, Mean (SD) [3]: −4.7 (4.17)
- NSFS Change from Active BL to Week 52, Median [3]: −5.0
- NSFS Change from Active BL to Week 54, Mean (SD) [3]: −4.4 (4.18)
- NSFS Change from Active BL to Week 54, Median [3]: −5.0
- NSFS Change from Open-label BL to Week 24, Mean (SD) [3]: −1.9 (3.06)
- NSFS Change from Open-label BL to Week 24, Median [3]: −2.0
- NSFS Change from Open-label BL to Week 52, Mean (SD) [3]: −4.7 (4.17)
- NSFS Change from Open-label BL to Week 52, Median [3]: −5.0
- NSFS Change from Open-label BL to Week 54, Mean (SD) [3]: −4.4 (4.18)
- NSFS Change from Open-label BL to Week 54, Median [3]: −5.0
- NSFS Change from Study BL to Week 24, Mean (SD) [3]: −4.8 (3.60)
- NSFS Change from Study BL to Week 24, Median [3]: −4.0
- NSFS Change from Study BL to Week 52, Mean (SD) [3]: −7.5 (3.72)
- NSFS Change from Study BL to Week 52, Median [3]: −8.0
- NSFS Change from Study BL to Week 54, Mean (SD) [3]: −7.3 (4.25)
- NSFS Change from Study BL to Week 54, Median [3]: −7.0
- NSFS Score change from Baseline, Mean (SD) [4]: −1.3 (2.25)
- NSFS Score change from Baseline, Median [4]: −1.0
- PANSS Negative Subscale Score change from Baseline, Mean (SD) [4]: −1.3 (2.20)
- PANSS Negative Subscale Score change from Baseline, Median [4]: −1.0
- PANSS Total Score change from Baseline, Mean (SD) [4]: −2.0 (6.89)
- PANSS Total Score change from Baseline, Median [4]: −2.0
- PANSS Positive Subscale Score change from Baseline, Mean (SD) [5]: 0.1 (2.78)
- PANSS Positive Subscale Score change from Baseline, Median [5]: 0.0
- NSFS Score change from Baseline, Mean (SD) (Roluperidone Total, Week 4, DB, pooled ITT): −2.4 (2.64)
